# According to patent US20060142323A1, “Dual binding site acetylcholinesterase inhibitors for the treatment of alzheimer's disease” (priority 2002, published 2006):
# What was measured:
# [1] = molecular target: T1, AChE from human erythrocytes (Homo sapiens, UniProt P22303); assay: AChE inhibition (from human erythrocytes), Ellman method; assay type: biochemical; settings: 10 min preincubation at 30° C., 400 μM acetylthiocholine iodide, pH 8
# T1 construct: 0.02 unit/ml AChE (Sigma Chemical Co. from human erythrocytes); purchased Sigma Chemical Co; host or cells: human erythrocytes
# T1 sequence (P22303 32-617 isoform P22303-2 limits assumed): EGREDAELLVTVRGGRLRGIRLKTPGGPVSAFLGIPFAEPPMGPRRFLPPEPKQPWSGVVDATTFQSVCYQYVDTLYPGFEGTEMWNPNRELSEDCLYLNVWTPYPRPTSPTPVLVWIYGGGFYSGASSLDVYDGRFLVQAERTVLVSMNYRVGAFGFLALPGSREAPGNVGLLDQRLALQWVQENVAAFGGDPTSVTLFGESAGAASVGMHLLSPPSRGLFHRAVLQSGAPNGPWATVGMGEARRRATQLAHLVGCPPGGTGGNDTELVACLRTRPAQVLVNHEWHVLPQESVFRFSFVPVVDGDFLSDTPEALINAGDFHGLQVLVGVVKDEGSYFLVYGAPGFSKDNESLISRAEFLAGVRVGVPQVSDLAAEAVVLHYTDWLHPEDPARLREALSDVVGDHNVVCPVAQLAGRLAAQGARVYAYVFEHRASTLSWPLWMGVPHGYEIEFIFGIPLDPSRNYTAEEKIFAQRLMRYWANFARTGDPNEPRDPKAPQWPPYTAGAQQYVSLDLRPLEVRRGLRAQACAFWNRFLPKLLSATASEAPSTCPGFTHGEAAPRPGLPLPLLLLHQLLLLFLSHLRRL
# Description: AChE Inhibition (from Human Erythrocytes)
# The method of Ellman et al. (Ellman, G. L.; Courtney, K. D.; Andres, B.; Featherstone, R. M. Biochem. Pharmacol. 1961, 7, 88-95) was followed. The assay solution consisted of 0.1 M phosphate buffer pH 8, 200 μM 5,5′-dithiobis(2-nitrobenzoic acid) (DTNB, Ellan's reagent), 0.02 unit/ml AChE (Sigma Chemical Co. from human erythrocytes), and 400 μM acetylthiocholine iodide as the substrate of the enzymatic reaction. The compounds tested were added to the assay solution and pre incubated with the enzyme for 10 min at 30° C. After that period, the substrate was added. The absorbance changes at 412 nm were recorded for 5 min with a Perkin-Elmer 550 SE UV/VIS spectrometer, the reaction rates were compared, and the percent inhibition due to the presence of test compounds was calculated.
# AChE from N2A cells = molecular target: T2, AChE from N2A cells (Mus musculus, UniProt P21836); assay: Neuronal AChE activity, enzyme preparation from N2A cells; assay type: biochemical; settings: pH 8, 0.5 mM acetylthiocholine iodide, read-out: IC50 AChE N2A (rat neuroblastoma)
# T2 construct: The assay solution consisted of AChE from neuronal cells; endogenous in cells; host or cells: N2A neuroblastoma cells
# T2 sequence (P21836 32-614): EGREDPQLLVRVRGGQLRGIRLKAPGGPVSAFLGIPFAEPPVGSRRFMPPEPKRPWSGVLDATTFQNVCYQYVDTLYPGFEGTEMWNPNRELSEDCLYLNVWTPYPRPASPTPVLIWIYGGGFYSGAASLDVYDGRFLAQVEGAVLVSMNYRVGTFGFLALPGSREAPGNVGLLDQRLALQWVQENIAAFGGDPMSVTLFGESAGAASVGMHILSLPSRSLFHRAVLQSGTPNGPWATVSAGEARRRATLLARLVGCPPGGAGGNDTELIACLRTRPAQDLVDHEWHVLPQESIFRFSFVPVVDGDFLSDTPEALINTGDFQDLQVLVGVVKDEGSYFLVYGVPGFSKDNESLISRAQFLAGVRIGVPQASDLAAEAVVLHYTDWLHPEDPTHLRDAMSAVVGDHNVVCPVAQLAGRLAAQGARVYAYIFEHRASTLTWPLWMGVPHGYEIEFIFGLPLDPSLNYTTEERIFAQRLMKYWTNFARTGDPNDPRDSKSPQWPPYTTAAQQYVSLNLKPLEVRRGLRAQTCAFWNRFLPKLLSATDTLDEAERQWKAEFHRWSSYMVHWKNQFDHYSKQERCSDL
# Description: (§1) Acetylcholinesterase (AChE) enzyme preparations were obtained from SH—SY5Y, SK—N—SH and N2A cells.
# (§2) CELL CULTURE: The human neuroblastoma cell line SH—SY5Y was cultured in minimum essential medium, Han's F12 medium, supplemented with 10% fetal bovine serum and 1% penicillin/streptomycin, and grown in a 5% CO2 humidified incubator at 37° C. […] The rat neuroblastoma cell line N2A was cultured in DULBECCO'S MOD EAGLE medium, supplemented with 10% fetal bovine serum and 1% penicillin/streptomycin, and grown in a 5% CO2 humidified incubator at 37° C. The cells were plated at 250 10^3 cells for each reaction, at least, 48 hours before the AChE activity measure. Cells were washed and harvested in 0.1 M sodium phosphate buffer pH 8, at 4° C.
# (§3) The assay solution consisted of AChE from neuronal cells, 0.1 M phosphate buffer pH 8, 0.3 mM 5,5′-dithiobis (2-nitrobenzoic acid) (DTNB, Ellman-s reagent), and 0.5 mM acetylthiocholine iodide as the substrate of the enzymatic reaction. […] The reaction rate was calculated with, at least, triplicate measurements, and the percent inhibition due to the presence of test compound was calculated relative to the compound-free control.
# AChE from SK—N—SH cells = molecular target: T3, AChE from SK—N—SH cells (Homo sapiens, UniProt P22303); assay: Neuronal AChE activity, enzyme preparation from SK-N-SH cells; assay type: biochemical
# T3 construct: The assay solution consisted of AChE from neuronal cells; endogenous in cells; host or cells: SK-N-SH human neuroblastoma cells
# T3 sequence (P22303 32-614): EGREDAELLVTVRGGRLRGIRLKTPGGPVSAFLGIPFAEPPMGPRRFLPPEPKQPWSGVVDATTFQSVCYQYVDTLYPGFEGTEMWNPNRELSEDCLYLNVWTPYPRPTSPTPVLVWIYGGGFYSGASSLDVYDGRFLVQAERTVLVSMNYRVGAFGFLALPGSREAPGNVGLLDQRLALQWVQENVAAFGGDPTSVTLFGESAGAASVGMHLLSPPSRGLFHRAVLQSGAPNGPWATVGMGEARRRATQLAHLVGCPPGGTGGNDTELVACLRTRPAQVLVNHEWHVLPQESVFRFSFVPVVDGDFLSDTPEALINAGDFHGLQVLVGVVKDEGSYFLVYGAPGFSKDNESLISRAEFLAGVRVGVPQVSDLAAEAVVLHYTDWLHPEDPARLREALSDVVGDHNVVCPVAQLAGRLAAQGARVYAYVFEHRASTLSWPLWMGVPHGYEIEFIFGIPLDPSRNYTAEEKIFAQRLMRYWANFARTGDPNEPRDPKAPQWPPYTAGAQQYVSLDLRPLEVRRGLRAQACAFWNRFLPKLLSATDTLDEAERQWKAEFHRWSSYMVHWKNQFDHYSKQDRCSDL
# Description: as §1, §2, §3
# AChE from SH—SY5Y cells = molecular target: T4, AChE from SH—SY5Y cells (Homo sapiens, UniProt P22303); assay: Neuronal AChE activity, enzyme preparation from SH-SY5Y cells; assay type: biochemical; settings: pH 8, 0.5 mM acetylthiocholine iodide, read-out: IC50 AChE SH-SY5Y (human neuroblastoma)
# T4 construct: The assay solution consisted of AChE from neuronal cells; endogenous in cells; host or cells: SH-SY5Y human neuroblastoma cells
# T4 sequence (P22303 32-614): as above
# Description: as §1, §2, §3
# β-amyloid-AChE complex = molecular target: T5, β-amyloid-AChE complex (Homo sapiens, UniProt P22303); assay: Inhibition of β-amyloid aggregation (AChE-Aβ complex, Congo Red binding); assay type: biochemical; settings: compound at its AChE IC50, Aβ1-40 0.1 mM, Aβ-AChE 200:1, 48 hours
# T5 construct: purchased Sigma-Aldrich
# T5 sequence (P22303 32-614, one chain of several): as the sequence (P22303 32-614) above
# Description: Inhibition of β-Amyloid Aggregation:
# Stock solutions of Aβ1-40 at 3.5 mM were prepared in DMSO. The amount of peptide used in the assays was 0.1 mM. Human recombinant AChE (Sigma-Aldrich) was used at a molar ratio Aβ-AChE 200:1. For the aggregation studies the peptide was mixed with the appropriate amount of AChE in PBS pH 7.4 and stirred for 48 hours in -a microtiter plate at room temperature. The fibrils obtained were characterized by Congo Red (CR) binding.
# For the inhibition of β-amyloid aggregation, the compounds tested were used at the IC50 defined in the previous paragraph of the biological evaluation. Propidium iodide 50 μM for comparison.
# [2] = molecular target: T6, AChE from bovine erythrocytes (Bos taurus, UniProt P23795); assay: AChE inhibition (from bovine erythrocytes), Ellman method at 25° C., Fluostar reader; assay type: biochemical; settings: 0.5 mM acetylthiocholine iodide, pH 8, 10 min preincubation
# T6 construct: 0.02 units AChE (Sigma Chemical Co. from bovine erythrocytes); purchased Sigma Chemical Co; host or cells: bovine erythrocytes
# T6 sequence (P23795 31-614 isoform P23795-2 limits assumed): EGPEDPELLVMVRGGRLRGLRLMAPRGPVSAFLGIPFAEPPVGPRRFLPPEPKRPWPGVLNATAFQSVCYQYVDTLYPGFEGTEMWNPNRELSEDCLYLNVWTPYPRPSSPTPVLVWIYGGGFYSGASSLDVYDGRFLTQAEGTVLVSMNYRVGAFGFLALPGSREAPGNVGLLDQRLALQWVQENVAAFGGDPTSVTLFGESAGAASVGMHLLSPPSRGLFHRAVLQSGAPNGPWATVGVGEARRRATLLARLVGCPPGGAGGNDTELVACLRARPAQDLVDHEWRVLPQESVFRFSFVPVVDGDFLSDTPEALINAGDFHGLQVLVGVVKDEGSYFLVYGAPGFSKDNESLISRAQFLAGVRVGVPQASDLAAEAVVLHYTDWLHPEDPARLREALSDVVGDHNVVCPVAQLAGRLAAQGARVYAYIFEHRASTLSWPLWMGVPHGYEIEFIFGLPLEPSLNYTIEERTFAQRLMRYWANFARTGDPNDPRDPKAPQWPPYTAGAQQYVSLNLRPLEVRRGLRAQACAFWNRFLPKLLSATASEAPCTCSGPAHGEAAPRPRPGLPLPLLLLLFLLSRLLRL
# Description: AChE Inhibition (from Bovine Erythocytes)
# AChE inhibitory activity was evaluated at 25° C. by the colorimetric method reported by Ellman (Ellman, G. L.; Courtney, K. D.; Andres, B.; Featherstone, R. M. Biochem. Pharmacol. 1961, 7, 88-95). The assay solution consisted on 0.02 unit/ml AChE from bovine erythrocytes, 0.1 M sodium phosphate buffer pH 8, 0.3 mM 5,5′-dithiobis (2-nitrobenzoic […]), and 0.5 mM acetylthiocholine iodide as the substrate of the enzymatic reaction. Enzyme activity was determined by measuring the absorbance at 405 nm during 10 minutes with a Fluostar optima plate reader (BMG). The tested compounds were preincubated with the enzyme for 10 minutes at 30° C.
# [3] = molecular target: T6, AChE from bovine erythrocytes; assay: Acetylcholinesterase (AChE) inhibition (from bovine erythrocytes), Ellman method at 30° C., Digiscan 340T; assay type: biochemical; settings: bovine erythrocytes AChE, 30° C., 5 min preincubation; read-out: IC50 AchE
# Description: Acetylcholinesterase (AChE) Inhibition (from Bovine Erythrocytes)
# AChE inhibitory activity was evaluated at 30° C. by the colorimetric method reported by Ellman [Ellman, G. L.; Courtney, K. D.; Andres, B.; Featherstone, R. M. Biochem. Pharmacol. 1961, 7, 88-95]. The assay solution consisted of 0.1 M phosphate buffer pH 8, 0.3 mM 5,5′-dithiobis (2-nitrobenzoic acid) (DTNB, Ellman's reagent), 0.02 units AChE (Sigma Chemical Co. from bovine erythrocytes), and 0.5 mM acetylthiocholine iodide as the substrate of the enzymatic reaction. The compounds tested were added to the assay solution and preincubated with the enzyme for 5 min at 30° C. After that period, the substrate was added. The absorbance changes at 405 nm were recorded for 5 min with a microplate reader Digiscan 340T, the reaction rates were compared, and the percent inhibition due to the presence of test compounds was calculated. The reaction rate was calculated with, at least, triplicate measurements, and the percent inhibition due to the presence of test compound was calculated relative to the compound-free control.
# BuChE from human serum = molecular target: T7, BuChE from human serum (Homo sapiens, UniProt P06276); assay: Butyrylcholinesterase (BuChE) inhibition (from human serum); assay type: biochemical; settings: human serum BuChE, 30° C., 10 min preincubation; read-out: IC50 BuChE
# T7 construct: The assay solution consisted of 0.01 units BuChE from human serum; from tissue; host or cells: human serum
# T7 sequence (P06276 29-602): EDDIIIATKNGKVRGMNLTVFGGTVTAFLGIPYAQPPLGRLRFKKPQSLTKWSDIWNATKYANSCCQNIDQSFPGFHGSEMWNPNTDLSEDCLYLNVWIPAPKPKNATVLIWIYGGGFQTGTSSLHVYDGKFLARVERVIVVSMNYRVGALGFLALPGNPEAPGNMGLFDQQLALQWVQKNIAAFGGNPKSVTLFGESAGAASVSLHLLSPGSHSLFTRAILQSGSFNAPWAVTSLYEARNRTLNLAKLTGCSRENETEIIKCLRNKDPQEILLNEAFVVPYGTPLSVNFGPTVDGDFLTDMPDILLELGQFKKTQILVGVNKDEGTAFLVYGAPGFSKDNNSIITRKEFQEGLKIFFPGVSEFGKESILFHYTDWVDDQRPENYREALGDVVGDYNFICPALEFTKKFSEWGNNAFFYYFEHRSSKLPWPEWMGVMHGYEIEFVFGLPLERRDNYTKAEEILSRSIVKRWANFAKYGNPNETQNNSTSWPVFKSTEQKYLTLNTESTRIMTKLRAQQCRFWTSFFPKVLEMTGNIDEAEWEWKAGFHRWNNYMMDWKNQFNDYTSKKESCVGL
# Description: Butyrylcholinetersae (BuChE) Inhibition (from Human Serum)
# BuChE inhibitory activity was evaluated at 30° C. by the colorimetric method reported by Ellman (Ellman, G. L.; Courtney, K. D.; Andres, B.; Featherstone, R. M. Biochem. Pharmacol. 1961, 7, 88-95]. The assay solution consisted of 0.01 units BuChE from human serum, 0.1 M sodium phosphate buffer pH 8, 0.3 mM 5,5′-dithiobis (2-nitrobenzoic acid) (DTNB, Ellman's reagent), and 0.5 mM butylthiocholine iodide as the substrate of the enzymatic reaction. Enzyme activity was determined by measuring the absorbance at 405 nm during 5 minutes with a microplate reader Digiscan 340T. The tested compounds were preincubated with the enzyme for 10 minutes at 30° C. The reaction rate was calculated with, at least, triplicate measurements.
# [4] = tested on: human neuroblastoma cell line SH—SY5Y; assay: Toxicity measurement (LDH) in SH-SY5Y cells; assay type: cell-based; settings: 24 hours exposure
# Description: The cytotoxicity effect of the molecules was tested in the human neuroblastoma cell line SH—SY5Y. These cells were cultured in 96-well plates in minimum essential medium, Han's F12 medium, supplemented with 10% fetal bovine serum, 1% glutamine and 1% penicillin/streptomycin, and grown in. a 5% CO2 humidified incubator at 37° C.
# The cells were plated at 10^4 cells for each well, at least, 48 hours before the toxicity measure. Cells were exposed for 24 hours to the compounds at different concentrations (from 10^−5 to 10^−9), quantitative assessment of cell death was made by measurement of the intracellular enzyme lactate dehydrogenase (LDH) (citotoxicity detection kit, Roche). The cuantity of LDH was evaluated in a microplate reader Anthos 2010, at 492 and 620 nm. Controls were taken as 100% viability.
# AChE peripheral site = AChE peripheral site (Homo sapiens, UniProt P22303); assay: Propidium competition (fluorescence); assay type: binding; settings: 20 μM propidium iodide, AChE incubated at least 6 hours with compound
# Sequence of AChE peripheral site (P22303 32-614): as the sequence (P22303 32-614) above
# Description: Fluorescence was measured in a Fluostar optima plate reader (BMG). Measurements were carried out in 100 μl solution volume, in 96-well plates. The buffer used was 1 mM Tris/HCl, pH 8.0. […] AChE was incubated, at least 6 hours, with the molecules at different concentrations. 20 μM propidium iodide was added 10 min before fluorescence measurement.
# [5] = tested on: calcium channels in SH—SY5Y cells; assay: Effects on calcium channels (K+ stimulated calcium entry, Fluo-4); assay type: cell-based, human; settings: 60 mM K+, 10 min preincubation
# Description: Effects on Calcium Channels
# We have studied if these compounds are able to block calcium channels. Calcium entry in SH—SY5Y cells was stimulated with 60 mM K^+ in 96-well plates. Cells were plated at 5·10^4 for each well, at least, 48 hours before the experiment. For measurement of intracellular calcium, SH—SY5Y were washed with Krebs/HEPES buffer, pH 7.4. and cells were loaded with the calcium indicator dye Fluo-4 (Molecular Probes) for 40 min at 37° C. followed by 15 min post incubation at room temperature. Intracellular calcium was measured fluorometrically in a Fluostar optima plate reader (BMG), with excitation wavelengths set at 485 nm and emission at 520 nm. The tested compounds were preincubated with the cells for 10 minutes before the depolarization with K^+.
# [6] = tested on: SH—SY5Y cells exposed to β-amyloid fragment 25-35; assay: Effects on β-amyloid toxicity (fragment 25-35, LDH viability); assay type: cell-based, human; settings: 1 hour pretreatment, Aβ 25-35 at 200 μM, 24 hours
# Description: Effects on β-Amiloid Toxicity
# We have tested if some of these molecules interfere with amyloid peptide toxicity. Cells SH—SY5Y were cultured in 96-well plates as toxicity experiments. Cells were pretreated for 1 hour with the compounds at different concentrations (from 10^−5 to 10^−9), immediately neuronal death is induced adding synthetic peptide β-amyloid, fragment 25-35 (A25-35) at 200 μM. 24 hours later cell viability was assessed with the LDH assay; results are reported relative to untreated wells.
Compound,IC50 [1],IC50 (AChE from N2A cells),IC50 (AChE from SK—N—SH cells),IC50 (AChE from SH—SY5Y cells),reduction of the β-amyloid-AChE complex aggregation (β-amyloid-AChE complex),IC50 [2],IC50 [3],IC50 (BuChE from human serum),Toxicity [4],Propidium competition (AChE peripheral site),Calcium channel blockade [5],inhibition of Aβ(25-35) toxicity [6]
"COc1cc2c(cc1OC)C(=O)C(CNCCCCCCCNc1c3c(nc4ccccc14)CCCC3)C2 (stereo not shown) [Compound 1, 5,6-Dimethoxy-2-{[7-(1,2,3,4-tetrahydro-acridin-9-ylamino)-heptylamino]-methyl}-indan-1-one]",25 nM,209 nM,109 nM,4350 nM,18.7%,–,–,–,–,–,–,–
"CCCn1s/c(=N\CCCCCCCNc2c3c(nc4ccccc24)CCCC3)n(CC)c1=O [Compound 16, 4-Ethyl-2-propyl-5-[7-(1,2,3,4-tetrahydro-acridin-9-ylamino)-heptyl-imino]-[1,2,4]thiadiazolidin-3-one]",–,–,–,–,–,203 nM,450 nM,20 nM,50 µM,>100 µM,–,–
"O=C1c2ccccc2C(=O)N1CCCCCCCNc1c2ccccc2nc2ccccc12 [Compound 7, 2-[7-(Acridin-9-ylamino)-heptyl]-isoindole-1,3-dione]",–,–,–,–,–,–,1500 nM,700 nM,>100 µM,100 µM,10 µM,1 µM
